The values that follow come from patent US20220323406A1, “METHODS AND COMPOSITIONS FOR DIFFERENTIATING STEM CELLS” (Massachusetts Institute of Technology, priority 2019, published 2022).

In experiment [1] the test system is ENR+CD organoids (ISC to Paneth cell differentiation). Briefly: Primary screen: basal (non-stimulated) lysozyme secretion LYZ.NS, 2.5-D 384-well ENR+CD organoid differentiation. It counts as cell-based, mouse. The source says: (§1) High-throughput screening.
The test system is the same in experiment [2]. Briefly: Primary screen: CCh-stimulated lysozyme secretion LYZ.S, 2.5-D 384-well ENR+CD organoid differentiation. The class given is cell-based, mouse. The following applies: primary screen.
Source text: as §1

The test system of the next experiment is ENR+CD organoids. Briefly: Primary screen: ATP (CellTiter-Glo 3D, CTG) cell number/viability, 2.5-D 384-well ENR+CD organoids. (Cellular ATP, detected with luciferase, serves as a proxy for viable cell number.)
The mark [3] stands for this setting: primary screen, dose 0.08 uM, FC relative to plate median.
[4] abbreviates: primary screen, dose 0.08 uM, standard z score.
Where [5] appears, read: primary screen, dose 0.40 uM, FC relative to plate median.
The mark [6] stands for this setting: primary screen, dose 0.40 uM, standard z score.
[7] abbreviates: primary screen, dose 2.00 uM, FC relative to plate median.
[8] abbreviates: primary screen, dose 2.00 uM, standard z score.
The mark [9] stands for this setting: primary screen, dose 10.00 uM, FC relative to plate median.
The mark [10] stands for this setting: primary screen, dose 10.00 uM, standard z score.
Where [11] appears, read: primary screen, standard z score, dose 0.08 uM.
Setting [12] is: primary screen, standard z score, dose 0.40 uM.
[13] abbreviates: primary screen, standard z score, dose 2.00 uM.
[14] abbreviates: primary screen, standard z score, dose 10.00 uM.
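Throughout, for Dose.FC.CTG (log2 fold change): compounds given at plating and again on day 3 over a 6-day differentiation from ENR+CV stem-cell-enriched precursors, ATP measured on day 6, plate median as control.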
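Throughout, for Dose.FC.CTG: compounds given at plating and again on day 3 over a 6-day differentiation from ENR+CV stem-cell-enriched precursors, ATP measured on day 6, plate median as control.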
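Throughout, for Z.CTG (standard z score): compounds given at plating and again on day 3 over a 6-day differentiation from ENR+CV stem-cell-enriched precursors, ATP measured on day 6, plate median as control.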
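Throughout, for Z.CTG: compounds given at plating and again on day 3 over a 6-day differentiation from ENR+CV stem-cell-enriched precursors, ATP measured on day 6, plate median as control.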

Consider `CC[C@H](C)C(=O)O[C@H]1C[C@@H](C)C=C2C=C[C@H](C)[C@H](CC[C@@H]3C[C@@H](O)CC(=O)O3)[C@H]21` [Lovastatin], for which the “Dose.FC.LYZ.NS (log2 fold change)” value in experiment [1] (primary screen, dose 0.08 uM) is recorded as 0.002; in experiment [1] (primary screen, dose 0.40 uM), −0.057; in experiment [1] (primary screen, dose 2.00 uM) it was −0.279; in experiment [1] (primary screen, dose 10.00 uM), −0.271. Also, the “Z.LYZ.NS (standard z score)” value in experiment [1] (primary screen, dose 0.08 uM) is on record as 0.017; in experiment [1] (primary screen, dose 0.40 uM), −0.492; in experiment [1] (primary screen, dose 2.00 uM), −2.430; in experiment [1] (primary screen, dose 10.00 uM), −2.362. Besides, the “Dose.FC.LYZ.S (log2 fold change)” value is on record as −0.023 in experiment [2] (dose 0.08 uM), −0.049 in experiment [2] (dose 0.40 uM), −0.398 in experiment [2] (dose 2.00 uM) and −0.409 in experiment [2] (dose 10.00 uM). In addition, the “Dose.FC.CTG (log2 fold change)” value is −0.322 in the experiment on ENR+CD organoids (primary screen, dose 0.08 uM); −0.492 with ENR+CD organoids (primary screen, dose 0.40 uM); −1.174 with ENR+CD organoids (primary screen, dose 2.00 uM); −1.391 with ENR+CD organoids (primary screen, dose 10.00 uM).
`Cc1cc(NC(=O)Nc2ccc(N(C)C)cc2)c2cc(F)cc(F)c2n1` [SB408124]: the Dose.FC.LYZ.NS in experiment [1] (setting [3]) is given as 0.172 log2 fold change; in experiment [1] (setting [5]), 0.134 log2 fold change; in experiment [1] (setting [7]) it was 0.084 log2 fold change; in experiment [1] (setting [9]) it was −0.070 log2 fold change. Moreover, the Z.LYZ.NS is reported as 1.494 in experiment [1] (setting [4]), 1.168 in experiment [1] (setting [6]), 0.730 in experiment [1] (setting [8]) and −0.607 in experiment [1] (setting [10]). Besides, the Dose.FC.LYZ.S in experiment [2] (dose 0.08 uM, FC relative to plate median) is 0.198 log2 fold change; in experiment [2] (dose 0.40 uM, FC relative to plate median) it was 0.193 log2 fold change; in experiment [2] (dose 2.00 uM, FC relative to plate median), 0.082 log2 fold change; in experiment [2] (dose 10.00 uM, FC relative to plate median), −0.148 log2 fold change. Further, the Dose.FC.CTG is listed as 0.410 log2 fold change in the experiment on ENR+CD organoids (setting [3]), 0.334 log2 fold change with ENR+CD organoids (setting [5]), 0.364 log2 fold change in the experiment with ENR+CD organoids (setting [7]) and 0.091 log2 fold change in the experiment on ENR+CD organoids (setting [9]). For the same compound, the Z.CTG is on record as 0.978 in the experiment with ENR+CD organoids (setting [4]), 0.799 in the experiment with ENR+CD organoids (setting [6]), 0.869 with ENR+CD organoids (setting [8]) and 0.216 with ENR+CD organoids (setting [10]).
For `CNC(=O)c1cc(Oc2ccc(NC(=O)Nc3cc(C(C)(C)C)nn3-c3ccc4ncccc4c3)c(F)c2)ccn1` [DCC-2036 (Rebastinib)], the Dose.FC.LYZ.NS is listed as 0.259 log2 fold change in experiment [1] (primary screen, dose 0.08 uM); 0.128 log2 fold change in experiment [1] (primary screen, dose 0.40 uM); 0.073 log2 fold change in experiment [1] (primary screen, dose 2.00 uM); −0.209 log2 fold change in experiment [1] (primary screen, dose 10.00 uM). For the same compound, the Z.LYZ.NS in experiment [1] (setting [11]) is on record as 2.256; in experiment [1] (setting [12]), 1.116; in experiment [1] (setting [13]), 0.637; in experiment [1] (setting [14]), −1.823. For the same compound, the Dose.FC.LYZ.S is listed as 0.358 log2 fold change in experiment [2] (dose 0.08 uM), 0.186 log2 fold change in experiment [2] (dose 0.40 uM), 0.054 log2 fold change in experiment [2] (dose 2.00 uM) and −0.244 log2 fold change in experiment [2] (dose 10.00 uM). In addition, the Dose.FC.CTG in the experiment on ENR+CD organoids (primary screen, dose 0.08 uM) is recorded as 0.216 log2 fold change; in the experiment on ENR+CD organoids (primary screen, dose 0.40 uM) it was 0.218 log2 fold change; with ENR+CD organoids (primary screen, dose 2.00 uM), −0.038 log2 fold change; in the experiment on ENR+CD organoids (primary screen, dose 10.00 uM), −0.322 log2 fold change. The Z.CTG in the experiment on ENR+CD organoids (setting [11]) is listed as 0.516; in the experiment with ENR+CD organoids (setting [12]), 0.520; in the experiment on ENR+CD organoids (setting [13]), −0.091; in the experiment with ENR+CD organoids (setting [14]), −0.769.
As to `COc1ccc(COc2ccc(Cc3cnc(N)nc3N)cc2OC)cc1` [GW2580], the “Dose.FC.LYZ.NS (log2 fold change)” value in experiment [1] (primary screen, dose 0.08 uM) is recorded as 0.006; in experiment [1] (primary screen, dose 0.40 uM), 0.014; in experiment [1] (primary screen, dose 2.00 uM) it was −0.060; in experiment [1] (primary screen, dose 10.00 uM), −0.018. For the same compound, the “Z.LYZ.NS (standard z score)” value in experiment [1] (primary screen, dose 0.08 uM) is 0.056; in experiment [1] (primary screen, dose 0.40 uM), 0.118; in experiment [1] (primary screen, dose 2.00 uM) it was −0.525; in experiment [1] (primary screen, dose 10.00 uM), −0.158. Also, the “Dose.FC.LYZ.S (log2 fold change)” value is given as −0.013 in experiment [2] (dose 0.08 uM), 0.020 in experiment [2] (dose 0.40 uM), −0.060 in experiment [2] (dose 2.00 uM) and −0.026 in experiment [2] (dose 10.00 uM). Further, the “Dose.FC.CTG (log2 fold change)” value in the experiment with ENR+CD organoids (primary screen, dose 0.08 uM) is −0.042; in the experiment with ENR+CD organoids (primary screen, dose 0.40 uM), −0.284; with ENR+CD organoids (primary screen, dose 2.00 uM), 0.029; in the experiment on ENR+CD organoids (primary screen, dose 10.00 uM), −0.038. Also, the “Z.CTG (standard z score)” value is recorded as −0.101 in the experiment with ENR+CD organoids (primary screen, dose 0.08 uM); −0.678 in the experiment on ENR+CD organoids (primary screen, dose 0.40 uM); 0.068 in the experiment on ENR+CD organoids (primary screen, dose 2.00 uM); −0.091 with ENR+CD organoids (primary screen, dose 10.00 uM).
For `CC(C)c1noc(N2CCC(COc3ccc(-c4ccc(S(C)(=O)=O)cc4)nc3)CC2)n1` [GSK1292263], the “Dose.FC.LYZ.NS (log2 fold change)” value is 0.078 in experiment [1] (primary screen, dose 0.08 uM); 0.050 in experiment [1] (primary screen, dose 0.40 uM); 0.028 in experiment [1] (primary screen, dose 2.00 uM); 0.020 in experiment [1] (primary screen, dose 10.00 uM). Also, the “Z.LYZ.NS (standard z score)” value in experiment [1] (primary screen, dose 0.08 uM) is reported as 0.681; in experiment [1] (primary screen, dose 0.40 uM) it was 0.434; in experiment [1] (primary screen, dose 2.00 uM), 0.240; in experiment [1] (primary screen, dose 10.00 uM), 0.173. For the same compound, the “Dose.FC.LYZ.S (log2 fold change)” value was found to be 0.111 in experiment [2] (dose 0.08 uM), 0.101 in experiment [2] (dose 0.40 uM), 0.060 in experiment [2] (dose 2.00 uM) and 0.027 in experiment [2] (dose 10.00 uM). Moreover, the “Dose.FC.CTG (log2 fold change)” value amounted to 0.161 in the experiment on ENR+CD organoids (primary screen, dose 0.08 uM); 0.192 in the experiment with ENR+CD organoids (primary screen, dose 0.40 uM); 0.224 in the experiment with ENR+CD organoids (primary screen, dose 2.00 uM); 0.196 in the experiment with ENR+CD organoids (primary screen, dose 10.00 uM). The “Z.CTG (standard z score)” value was found to be 0.384 in the experiment with ENR+CD organoids (primary screen, dose 0.08 uM); 0.458 in the experiment with ENR+CD organoids (primary screen, dose 0.40 uM); 0.535 in the experiment on ENR+CD organoids (primary screen, dose 2.00 uM); 0.468 in the experiment with ENR+CD organoids (primary screen, dose 10.00 uM).
For the compound `CCc1cccc2c3c([nH]c12)C(CC)(CC(=O)O)OCC3` (stereo not shown) [Etodolac], the Dose.FC.LYZ.NS was 0.046 log2 fold change in experiment [1] (primary screen, dose 0.08 uM); 0.036 log2 fold change in experiment [1] (primary screen, dose 0.40 uM); 0.052 log2 fold change in experiment [1] (primary screen, dose 2.00 uM); −0.009 log2 fold change in experiment [1] (primary screen, dose 10.00 uM). Further, the Z.LYZ.NS is 0.400 in experiment [1] (setting [11]), 0.314 in experiment [1] (setting [12]), 0.452 in experiment [1] (setting [13]) and −0.078 in experiment [1] (setting [14]). In addition, the Dose.FC.LYZ.S in experiment [2] (dose 0.08 uM) is reported as 0.034 log2 fold change; in experiment [2] (dose 0.40 uM), 0.127 log2 fold change; in experiment [2] (dose 2.00 uM), 0.070 log2 fold change; in experiment [2] (dose 10.00 uM) it was −0.011 log2 fold change. Moreover, the Dose.FC.CTG is on record as −0.061 log2 fold change with ENR+CD organoids (primary screen, dose 0.08 uM); 0.049 log2 fold change with ENR+CD organoids (primary screen, dose 0.40 uM); 0.008 log2 fold change with ENR+CD organoids (primary screen, dose 2.00 uM); 0.023 log2 fold change with ENR+CD organoids (primary screen, dose 10.00 uM).
